One series deals with Haemonchus contortus. The experiment in a line: In-vivo test on Haemonchus contortus on Mongolian gerbils using peroral application. To be noted: po, 72 h, worm count 3 days after treatment, read-out: Hc: efficacy, % reduction of the number of worms; for inhibition in vivo at 1 mg/kg: 1 mg/kg peroral; for inhibition in vivo at 10 mg/kg: 10 mg/kg peroral; for inhibition in vivo at 3.2 mg/kg: 3.2 mg/kg peroral. On the procedure:
(§1) 1. In-Vivo Test on Trichostrongylus colubriformis and Haemonchus contortus on Mongolian Gerbils (Meriones uncuiculatus) Using Peroral Application Six to eight week old Mongolian gerbils are infected through a stomach tube with ca. 2000 third instar larvae each of T. colubriformis and H. contortus. 6 days after infection, the gerbils are treated by peroral application with the test compounds, dissolved in a mixture of 2 parts DMSO and 1 part polyethylene glycol (PEG 400), in quantities of 100, 32 and 10-0.1 mg/kg. On day 9 (3 days after treatment), when most of the H. contortus that are still present are late 4th instar larvae and most of the T. colubriformis are immature adults, the gerbils are killed in order to count the worms. The efficacy is calculated as the % reduction of the number of worms in each gerbil, compared with the geometric average of number of worms from 6 infected and untreated gerbils. The following tables B1, B2 and B3 show a comparison of a series of the compounds of tables 1, 2 and 3 with structurally most closely related ones known from literature, proving the astounding efficacy increase in this test over the state of the art (Hc: Haemonchus contortus; Tc: Trichostrongylus colubriformis): […]

Series [1] deals with Trichostrongylus colubriformis. Description: In-vivo test on Trichostrongylus colubriformis on Mongolian gerbils using peroral application. To be noted: po, 72 h, worm count 3 days after treatment, read-out: Tc: efficacy, % reduction of the number of worms; for inhibition in vivo at 1 mg/kg: 1 mg/kg peroral; for inhibition in vivo at 10 mg/kg: 10 mg/kg peroral; for inhibition in vivo at 3.2 mg/kg: 3.2 mg/kg peroral. On the procedure: as §1

As to `CC(C#N)(COc1cc(C#N)ccc1C(F)(F)F)NC(=O)c1ccc(SC(F)(F)F)cc1` (stereo not drawn) [No. 3.16, N-[1-cyano-1-methyl-2-(5-cyano-2-trifluoromethylphenoxy)-ethyl]-4-trifluoromethylsulfanyl-benzamide], the inhibition in vivo at 1 mg/kg (in the series on Haemonchus contortus; in series [1]) was 100% throughout.
Consider `CC(C#N)(COc1cc(Cl)ccc1Cl)NC(=O)c1ccc(OC(F)(F)F)cc1` (stereo not drawn) [No. 1.124, reference compound], for which the figures for the inhibition in vivo at 10 mg/kg (with Haemonchus contortus; in series [1]) were 84% and 99%, respectively.
For the molecule `CC(C#N)(COc1ccccc1Cl)NC(=O)c1ccc(C(F)(F)F)cc1` (stereo not drawn) [No. 1.12, reference compound], the inhibition in vivo at 10 mg/kg came to 82% in the series with Haemonchus contortus and 98% in series [1].
In the case of `CC(C#N)(COc1ccc(C#N)cc1C(F)(F)F)NC(=O)c1ccc(S(=O)(=O)C(F)(F)F)cc1` (stereo not drawn) [No. 3.9, N-[1-cyano-1-methyl-2-(4-cyano-2-trifluoromethylphenoxy)-ethyl]-4-trifluoromethylsulfonyl-benzamide], the results for the inhibition in vivo at 1 mg/kg (with Haemonchus contortus; in series [1]) were 77% and 87%, respectively.
As to `CC(C#N)(COc1ccccc1C(F)(F)F)NC(=O)c1ccc(SC(F)(F)F)cc1` (stereo not drawn) [No. 2.14, reference compound], the inhibition in vivo at 3.2 mg/kg with Haemonchus contortus was determined as 61%; in series [1], 73%.
`CC(C#N)(COc1ccccc1C(F)(F)F)NC(=O)c1ccc(OC(F)(F)F)cc1` (stereo not drawn) [No. 1.64, reference compound]: the inhibition in vivo at 1 mg/kg in the series on Haemonchus contortus was found to be 28%; in series [1], 55%.
As for `CC(C#N)(COc1cc(Cl)ccc1Cl)NC(=O)c1ccc(C(F)(F)F)cc1` (stereo not drawn) [No. 1.72, reference compound], the inhibition in vivo at 10 mg/kg in the series on Haemonchus contortus was determined as 66%.
As a reminder, the melting point is the temperature, or range, at which the solid turns liquid. Turning to `CC(C#N)(COc1cc(C#N)ccc1C(F)(F)F)NC(=O)c1ccc(C(F)(F)F)cc1` (stereo not drawn) [No. 1.6, N-[1-cyano-1-methyl-2-(5-cyano-2-trifluoromethylphenoxy)-ethyl]-4-trifluoromethyl-benzamide], the melting point was 154 °C. In the series with Haemonchus contortus, the inhibition in vivo at 1 mg/kg stood at 97%. In series [1], the inhibition in vivo at 1 mg/kg was 87%.
`CC(C#N)(COc1ccc(Cl)cc1Cl)NC(=O)c1ccc(C(F)(F)F)cc1` (stereo not drawn) [No. 1.60, reference compound]: the inhibition in vivo at 3.2 mg/kg in the series on Haemonchus contortus worked out at 29%; in series [1], 31%.
The like results for `CC(C#N)(COc1ccccc1C(F)(F)F)NC(=O)c1ccc(C(F)(F)F)cc1` (stereo not drawn) [No. 1.264, reference compound] were, in that order, 57% and 76%.
`CC(C#N)(COc1cc(C#N)ccc1Cl)NC(=O)c1ccc(OC(F)(F)F)cc1` (stereo not drawn) [No. 2.4, N-[1-cyano-1-methyl-2-(5-cyano-2-chlorophenoxy)-ethyl]-4-trifluoromethoxybenzamide] registered a melting point of 132 to 134 °C. Further, the inhibition in vivo at 1 mg/kg in the series on Haemonchus contortus is 89%. Further, in series [1], the inhibition in vivo at 1 mg/kg turned out to be 79%.
In turn, `CC(C#N)(COc1ccc(C#N)cc1Cl)NC(=O)c1ccc(OC(F)(F)F)cc1` (stereo not drawn) [No. 2.1, N-[1-cyano-1-methyl-2-(4-cyano-2-chlorophenoxy)-ethyl]-4-trifluoromethoxybenzamide] gave a melting point of 60 to 62 °C. Also, in the series on Haemonchus contortus, the inhibition in vivo at 3.2 mg/kg turned out to be 100%. Also, in series [1], the inhibition in vivo at 3.2 mg/kg was 100%.
Turning to `CC(C#N)(COc1ccc(C#N)cc1Cl)NC(=O)c1ccc(SC(F)(F)F)cc1` (stereo not drawn) [No. 3.1, N-[1-cyano-1-methyl-2-(4-cyano-2-chlorophenoxy)-ethyl]-4-trifluoromethylsulfanylbenzamide], the melting point was in the range of 167 to 169 °C. The inhibition in vivo at 1 mg/kg in the series with Haemonchus contortus was 69%. The inhibition in vivo at 1 mg/kg in series [1] turned out to be 93%.
For the molecule `CC(C#N)(COc1cc(C#N)ccc1C(F)(F)F)NC(=O)c1ccc(OC(F)(F)F)cc1` (stereo not drawn) [No. 2.6, N-[1-cyano-1-methyl-2-(5-cyano-2-trifluoromethylphenoxy)-ethyl]-4-trifluoromethoxybenzamide], the inhibition in vivo at 1 mg/kg came to 95% with Haemonchus contortus and 85% in series [1].
Molecule `CC(C#N)(COc1ccc(C#N)cc1C(F)(F)F)NC(=O)c1ccc(C(F)(F)F)cc1` (stereo not drawn) [No. 1.3, N-[1-cyano-1-methyl-2-(4-cyano-2-trifluoromethylphenoxy)-ethyl]-4-trifluoromethyl-benzamide] gave a melting point of 184 to 186 °C. In the series with Haemonchus contortus, the inhibition in vivo at 1 mg/kg is 97%. In addition, the inhibition in vivo at 1 mg/kg in series [1] was 91%.
With `CC(C#N)(COc1cc(C#N)ccc1C(F)(F)F)NC(=O)c1ccc(S(=O)(=O)C(F)(F)F)cc1` (stereo not drawn) [No. 3.18, N-[1-cyano-1-methyl-2-(5-cyano-2-trifluoromethylphenoxy)-ethyl]-4-trifluoromethylsulfonyl-benzamide], the inhibition in vivo at 1 mg/kg (in the series with Haemonchus contortus; in series [1]) was 100% each time.
On to `CC(C#N)(COc1cc(C#N)ccc1C(F)(F)F)NC(=O)c1ccc([S+]([O-])C(F)(F)F)cc1` (stereo not drawn) [No. 3.17, N-[1-cyano-1-methyl-2-(5-cyano-2-trifluoromethylphenoxy)-ethyl]-4-trifluoromethylsulfinyl-benzamide], for which the inhibition in vivo at 1 mg/kg (in the series with Haemonchus contortus; in series [1]) was 100% throughout.
As to `CC(C#N)(COc1ccccc1C(F)(F)F)NC(=O)c1ccc(C(F)(F)F)cc1F` (stereo not drawn) [No. 2.19, reference compound], the values for the inhibition in vivo at 10 mg/kg (with Haemonchus contortus; in series [1]) were 25% and 0%, respectively.
On to `CC(C#N)(COc1ccc(C#N)cc1C(F)(F)F)NC(=O)c1ccc([S+]([O-])C(F)(F)F)cc1` (stereo not drawn) [No. 3.8, N-[1-cyano-1-methyl-2-(4-cyano-2-trifluoromethylphenoxy)-ethyl]-4-trifluoromethylsulfinyl-benzamide], for which the inhibition in vivo at 1 mg/kg with Haemonchus contortus turned out to be 74%; in series [1] it was 85%.
`CC(C#N)(COc1cc(C#N)ccc1Cl)NC(=O)c1ccc(C(F)(F)F)cc1` (stereo not drawn) [No. 1.4, N-[1-cyano-1-methyl-2-(5-cyano-2-chlorophenoxy)-ethyl]-4-trifluoromethylbenzamide] yielded a melting point of 147 to 149 °C. Moreover, the inhibition in vivo at 1 mg/kg with Haemonchus contortus was 82%.
In turn, `CC(C#N)(COc1ccc(C#N)cc1Cl)NC(=O)c1ccc(C(F)(F)F)cc1` (stereo not drawn) [No. 1.1, N-[1-cyano-1-methyl-2-(4-cyano-2-chlorophenoxy)-ethyl]-4-trifluoromethylbenzamide] showed a melting point of 147 to 149 °C. In addition, the inhibition in vivo at 1 mg/kg in the series on Haemonchus contortus is 97%. Moreover, the inhibition in vivo at 1 mg/kg in series [1] was 87%.
Regarding `CC(C#N)(COc1ccc(C#N)cc1C(F)(F)F)NC(=O)c1ccc(SC(F)(F)F)cc1` (stereo not drawn) [No. 3.7, N-[1-cyano-1-methyl-2-(4-cyano-2-trifluoromethylphenoxy)-ethyl]-4-trifluoromethylsulfanyl-benzamide], the melting point lay within 79 to 82 °C. Also, the inhibition in vivo at 1 mg/kg in the series with Haemonchus contortus was 90%. Also, in series [1], the inhibition in vivo at 1 mg/kg came out at 98%.
On the same counts, the results for `CC(C#N)(COc1cc(C#N)ccc1Cl)NC(=O)c1ccc(SC(F)(F)F)cc1` (stereo not drawn) [No. 3.10, N-[1-cyano-1-methyl-2-(5-cyano-2-chlorophenoxy)-ethyl]-4-trifluoromethylsulfanylbenzamide] are 125 to 127 °C, 100% and 100%.
In turn, `CC(C#N)(COc1ccc(C#N)cc1C(F)(F)F)NC(=O)c1ccc(OC(F)(F)F)cc1` (stereo not drawn) [No. 2.3, N-[1-cyano-1-methyl-2-(4-cyano-2-trifluoromethylphenoxy)-ethyl]-4-trifluoromethoxy-benzamide] came in with a melting point of 80 to 82 °C.

The values above are taken from patent publication US7964635B2, “Amidoacetonitrile derivatives” (Novartis AG, priority 2003, dated 2011).
